Experimental data from patent US20250352550A1, “SUBSTITUTED FUROPYRIDINES FOR THERAPEUTIC USE” (MASARYKOVA UNIVERZITA, priority 2022, published 2025).

Tests used:
DDR1 = target: T1, DDR1 (Homo sapiens, UniProt Q08345); experiment: HotSpot radiometric kinase assay (Reaction Biology), DDR1; type: biochemical; details: 200 nM kinase, substrate IRS1tide 20 μM, 33P-ATP, 120 minutes at room temperature
T1 construct: purchased Reaction Biology
Protocol: (§1) The compounds were profiled in the HotSpot radiometric assays (Reaction Biology).
Briefly, • 1. Substrate indicated in Table 1 was dissolved in freshly prepared reaction buffer (20 mM HEPES (pH 7.5), 10 mM MgCl2, 1 mM EGTA, 0.01% Brij35, 0.02 mg/ml BSA, 0.1 mM Na3VO4, 2 mM DTT, 1% DMSO) at the concentration indicated in Table 1. • 2. Corresponding kinase (concentration indicated in Table 1) was added and the mixture was gently mixed. • 3. Tested compound dissolved in DMSO was added into the kinase reaction mixture. • 4. ^33P-ATP (specific activity 0.01 μCi/μL final) was added into the reaction mixture to initiate the reaction. • 5. The kinase reaction was incubated for 120 minutes at room temperature. • 6. […] The radioactive phosphorylated substrate remaining on the filter paper was measured.
(§2) Kinase activity data were expressed as the percent remaining kinase activity in tested samples compared to the vehicle (DMSO) reactions. IC50 values and curve fits were obtained using Prism4 Software (GraphPad).

FLT3 = target: T2, FLT3 (Homo sapiens, UniProt P36888); experiment: HotSpot radiometric kinase assay (Reaction Biology), FLT3; type: biochemical; details: 4 nM kinase, substrate ABLtide 20 μM, 33P-ATP, 120 minutes at room temperature
T2 construct: purchased Reaction Biology
T2 sequence (P36888 27-993): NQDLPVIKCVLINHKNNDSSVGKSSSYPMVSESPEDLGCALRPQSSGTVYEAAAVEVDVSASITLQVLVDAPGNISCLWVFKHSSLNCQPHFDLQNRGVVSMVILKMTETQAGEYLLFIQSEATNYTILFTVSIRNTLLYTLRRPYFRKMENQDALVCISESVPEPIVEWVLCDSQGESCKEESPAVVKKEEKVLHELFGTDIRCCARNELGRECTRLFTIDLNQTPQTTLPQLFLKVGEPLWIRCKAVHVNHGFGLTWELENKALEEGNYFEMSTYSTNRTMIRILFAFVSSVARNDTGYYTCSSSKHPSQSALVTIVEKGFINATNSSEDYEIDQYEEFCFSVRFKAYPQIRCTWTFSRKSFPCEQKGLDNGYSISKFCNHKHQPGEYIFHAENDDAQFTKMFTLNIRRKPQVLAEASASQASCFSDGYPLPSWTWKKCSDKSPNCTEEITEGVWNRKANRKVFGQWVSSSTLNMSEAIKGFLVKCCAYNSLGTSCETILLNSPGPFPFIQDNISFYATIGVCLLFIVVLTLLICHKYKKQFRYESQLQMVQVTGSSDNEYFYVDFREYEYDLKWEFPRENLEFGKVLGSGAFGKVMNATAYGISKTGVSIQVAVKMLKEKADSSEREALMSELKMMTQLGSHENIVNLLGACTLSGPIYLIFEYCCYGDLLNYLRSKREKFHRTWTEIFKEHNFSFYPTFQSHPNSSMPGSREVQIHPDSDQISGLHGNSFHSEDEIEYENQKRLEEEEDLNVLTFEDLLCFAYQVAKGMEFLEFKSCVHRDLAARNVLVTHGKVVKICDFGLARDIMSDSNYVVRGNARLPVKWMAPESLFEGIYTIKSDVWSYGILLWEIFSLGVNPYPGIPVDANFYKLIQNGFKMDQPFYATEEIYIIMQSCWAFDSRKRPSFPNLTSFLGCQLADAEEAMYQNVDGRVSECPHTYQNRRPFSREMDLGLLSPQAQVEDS
Protocol: as §1
Briefly, • 1. Substrate indicated in Table 1 was dissolved in freshly prepared reaction buffer (20 mM HEPES (pH 7.5), 10 mM MgCl2, 1 mM EGTA, 0.01% Brij35, 0.02 mg/ml BSA, 0.1 mM Na3VO4, 2 mM DTT, 1% DMSO) at the concentration indicated in Table 1. • 2. Corresponding kinase (concentration indicated in Table 1) was added and the mixture was gently mixed. • 3. Tested compound dissolved in DMSO was added into the kinase reaction mixture. • 4. ^33P-ATP (specific activity 0.01 μCi/μL final) was added into the reaction mixture to initiate the reaction. • 5. The kinase reaction was incubated for 120 minutes at room temperature. • 6. Reaction mixture was spotted onto P81 ion exchange paper (Whatman K 3698-915). • 7. The filters were extensively washed with […]. • 7. The radioactive phosphorylated substrate remaining on the filter paper was measured.
as §2
Table 2 summarizes the inhibitory activities of indicated compounds tested in the in vitro kinase assays described above.

T1 sequence (Q08345 19-913): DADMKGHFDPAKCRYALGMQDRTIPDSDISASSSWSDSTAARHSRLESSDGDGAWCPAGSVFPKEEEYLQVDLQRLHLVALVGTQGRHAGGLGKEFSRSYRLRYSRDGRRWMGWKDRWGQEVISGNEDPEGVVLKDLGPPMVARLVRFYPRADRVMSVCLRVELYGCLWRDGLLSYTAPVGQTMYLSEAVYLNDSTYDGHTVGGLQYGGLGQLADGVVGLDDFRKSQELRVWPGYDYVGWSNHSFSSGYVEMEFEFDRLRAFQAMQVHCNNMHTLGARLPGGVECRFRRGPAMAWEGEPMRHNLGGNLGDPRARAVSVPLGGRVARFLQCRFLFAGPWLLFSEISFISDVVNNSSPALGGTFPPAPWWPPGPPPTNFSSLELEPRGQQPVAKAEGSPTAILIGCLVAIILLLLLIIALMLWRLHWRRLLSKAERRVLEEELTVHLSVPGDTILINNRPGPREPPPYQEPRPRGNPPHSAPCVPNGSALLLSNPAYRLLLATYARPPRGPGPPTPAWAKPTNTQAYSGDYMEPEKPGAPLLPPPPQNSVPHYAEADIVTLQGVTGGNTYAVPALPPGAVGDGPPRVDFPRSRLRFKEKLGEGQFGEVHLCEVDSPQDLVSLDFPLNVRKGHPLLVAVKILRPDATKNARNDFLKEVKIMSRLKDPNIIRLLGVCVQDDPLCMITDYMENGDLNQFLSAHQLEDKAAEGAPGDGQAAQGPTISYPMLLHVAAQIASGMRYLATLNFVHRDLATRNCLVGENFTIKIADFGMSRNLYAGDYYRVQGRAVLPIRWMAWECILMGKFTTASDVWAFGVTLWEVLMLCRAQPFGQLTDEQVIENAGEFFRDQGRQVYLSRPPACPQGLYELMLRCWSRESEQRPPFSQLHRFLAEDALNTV

| SMILES | IC50 (DDR1) [nM] | IC50 (FLT3) [nM] |
| --- | --- | --- |
| Cn1ccc(-c2coc3cc(-c4ccc(N5CCNCC5)cc4)cnc23)n1 [Preparative Example 37, 3-(1-methyl-1H-pyrazol-3-yl)-6-(4-(piperazin-1-yl)phenyl)furo[3,2-b]pyridine] | 222 | 282 |
| O=[N+]([O-])c1cccc(-c2coc3cc(-c4ccc(N5CCNCC5)cc4)cnc23)c1 [Preparative Example 40, 3-(3-nitrophenyl)-6-(4-(piperazin-1-yl)phenyl)furo[3,2-b]pyridine] | 98 | 142 |
| Cc1ccc(-c2coc3cc(-c4ccc(N5CCNCC5)cc4)cnc23)cc1 [Preparative Example 43, 6-(4-(piperazin-1-yl)phenyl)-3-(p-tolyl)furo[3,2-b]pyridine] | 126 | 175 |
| CC(C)(C)Sc1cccc(-c2coc3cc(-c4ccc(N5CCNCC5)cc4)cnc23)c1 [Preparative Example 46, 3-(3-(tert-butylthio)phenyl)-6-(4-(piperazin-1-yl)phenyl)furo[3,2-b]pyridine] | 586 | 578 |
| c1cc(-c2coc3cc(-c4ccc(N5CCNCC5)cc4)cnc23)co1 [Preparative Example 57, 3-(furan-3-yl)-6-(4-(piperazin-1-yl)phenyl)furo[3,2-b]pyridine] | 172 | 22 |
| CN1CCN(c2ccc(-c3cnc4c(-c5ccncc5)coc4c3)cc2)CC1 [Preparative Example 58, 6-(4-(4-methylpiperazin-1-yl)phenyl)-3-(pyridin-4-yl)furo[3,2-b]pyridine] | 364 | 31 |
| NS(=O)(=O)c1cccc(-c2coc3cc(-c4ccc(N5CCNCC5)cc4)cnc23)c1 [Preparative Example 64, 3-(6-(4-(piperazin-1-yl)phenyl)furo[3,2-b]pyridin-3-yl)benzenesulfonamide] | 134 | 26 |
| COCc1cccc(-c2coc3cc(-c4ccc(N5CCNCC5)cc4)cnc23)c1 [Preparative Example 70, 3-(3-(methoxymethyl)phenyl)-6-(4-(piperazin-1-yl)phenyl)furo[3,2-b]pyridine] | 196 | 54 |
| FC(F)(F)c1cccc(-c2coc3cc(-c4ccc(N5CCNCC5)cc4)cnc23)c1 [Preparative Example 73, 6-(4-(piperazin-1-yl)phenyl)-3-(3-(trifluoromethyl)phenyl)furo[3,2-b]pyridine] | 966 | 717 |
| CCOC(=O)Nc1cccc(-c2coc3cc(-c4ccc(N5CCN(C)CC5)cc4)cnc23)c1 [Preparative Example 83, ethyl (3-(6-(4-(4-methylpiperazin-1-yl)phenyl)furo[3,2-b]pyridin-3-yl)phenyl)carbamate] | 622 | 99 |
| CN1CCN(c2ccc(Nc3cnc4c(-c5ccccc5)coc4c3)cc2)CC1 [Preparative Example 101, N-(4-(4-methylpiperazin-1-yl)phenyl)-3-phenylfuro[3,2-b]pyridin-6-amine] | 347 | 146 |
| c1ccc(Oc2cccc(-c3coc4cc(-c5ccc(N6CCNCC6)cc5)cnc34)c2)cc1 [Preparative Example 104, 3-(3-phenoxyphenyl)-6-(4-(piperazin-1-yl)phenyl)furo[3,2-b]pyridine] | 252 | 121 |
| FC(F)(F)Oc1cccc(-c2coc3cc(-c4ccc(N5CCNCC5)cc4)cnc23)c1 [Preparative Example 113, 6-(4-(piperazin-1-yl)phenyl)-3-(3-(trifluoromethoxy)phenyl)furo[3,2-b]pyridine] | 869 | 649 |
| FC(F)(F)COc1cccc(-c2coc3cc(-c4ccc(N5CCNCC5)cc4)cnc23)c1 [Preparative Example 116, 6-(4-(piperazin-1-yl)phenyl)-3-(3-(2,2,2-trifluoroethoxy)phenyl)furo[3,2-b]pyridine] | 673 | 353 |
| CS(=O)(=O)NCc1cccc(-c2coc3cc(-c4ccc(N5CCNCC5)cc4)cnc23)c1 [Preparative Example 125, N-(3-(6-(4-(piperazin-1-yl)phenyl)furo[3,2-b]pyridin-3-yl)benzyl)methanesulfonamide] | 198 | 21 |
| CN(C)c1cccc(-c2coc3cc(-c4ccc(N5CCNCC5)cc4)cnc23)c1 [Preparative Example 131, N,N-dimethyl-3-(6-(4-(piperazin-1-yl)phenyl)furo[3,2-b]pyridin-3-yl)aniline] | 385 | 345 |
| CN1CCN(c2ccc(-c3cnc4c(-c5cccc(C(=O)c6ccccc6)c5)coc4c3)cc2)CC1 [Preparative Example 133, (3-(6-(4-(4-methylpiperazin-1-yl)phenyl)furo[3,2-b]pyridin-3-yl)phenyl)(phenyl)methanone] | 472 | 269 |
| CN1CCN(c2ccc(-c3cnc4c(-c5cccc(CNC(=O)OC(C)(C)C)c5)coc4c3)cc2)CC1 [Preparative Example 135, tert-butyl (3-(6-(4-(4-methylpiperazin-1-yl)phenyl)furo[3,2-b]pyridin-3-yl)benzyl)carbamate] | 423 | 350 |
| CC(=O)NCc1cccc(-c2coc3cc(-c4ccc(N5CCN(C)CC5)cc4)cnc23)c1 [Preparative Example 137, N-(3-(6-(4-(4-methylpiperazin-1-yl)phenyl)furo[3,2-b]pyridin-3-yl)benzyl)acetamide] | 206 | 78 |
| CCNS(=O)(=O)Cc1cccc(-c2coc3cc(-c4ccc(N5CCN(C)CC5)cc4)cnc23)c1 [Preparative Example 141, N-ethyl-1-(3-(6-(4-(4-methylpiperazin-1-yl)phenyl)furo[3,2-b]pyridin-3-yl)phenyl)methanesulfonamide] | 763 | 805 |
| CN1CCN(c2ccc(-c3cnc4c(-c5cccc(CS(=O)(=O)N(C)C)c5)coc4c3)cc2)CC1 [Preparative Example 145, N,N-dimethyl-1-(3-(6-(4-(4-methylpiperazin-1-yl)phenyl)furo[3,2-b]pyridin-3-yl)phenyl)methane-sulfonamide] | 773 | 118 |
| CSc1cccc(-c2coc3cc(-c4ccc(N5CCN(C)CC5)cc4)cnc23)c1 [Preparative Example 147, 6-(4-(4-methylpiperazin-1-yl)phenyl)-3-(3-(methylthio)phenyl)furo[3,2-b]pyridine] | 236 | 203 |
| CCNC(=O)Cc1cccc(-c2coc3cc(-c4ccc(N5CCNCC5)cc4)cnc23)c1 [Preparative Example 152, N-ethyl-2-(3-(6-(4-(piperazin-1-yl)phenyl)furo[3,2-b]pyridin-3-yl)phenyl)acetamide] | 73 | 24 |
| CN1CCN(c2ccc(-c3cnc4c(-c5cccc(CC(N)=O)c5)coc4c3)cc2)CC1 [Preparative Example 154, 2-(3-(6-(4-(4-methylpiperazin-1-yl)phenyl)furo[3,2-b]pyridin-3-yl)phenyl)acetamide] | 157 | 22 |
